From ChEMBL document CHEMBL1147192, “New GABA-modulating 1,2,4-oxadiazole derivatives and their anticonvulsant activity” (Eur J Med Chem, 2007)

Assays:
[1] = tested on: Rattus norvegicus; experiment: Anticonvulsant activity in orally dosed Wistar rat after 0.5 hr by PTZ test; format: functional; settings: po
[2] = tested on: Rattus norvegicus; experiment: Neurotoxicity in orally dosed Wistar rat after 1 hr by RotoRod test; format: toxicity, organism-based; settings: in vivo, po
[3] = Potentiation of GABA-induced current in rat cortical neurons at 100 uM by whole-cell patch clamp technique; format: functional
[4] = Potentiation of GABA-induced current in rat cortical neurons at 10 uM by whole-cell patch clamp technique; format: functional
[5] = Inhibition of voltage dependent sodium current in rat cortical neurons at 100 uM by whole-cell patch clamp technique; format: functional
[6] = species on record: Rattus norvegicus; settings: Membrane, 10 uM
[7] = tested on: Rattus norvegicus; experiment: Anticonvulsant activity in orally dosed Wistar rat after 2 hrs by PTZ test; format: functional; settings: po
[8] = tested on: Rattus norvegicus; experiment: Anticonvulsant activity in orally dosed Wistar rat after 1 hr by MES test; format: functional; settings: po
[9] = tested on: Rattus norvegicus; experiment: Anticonvulsant activity in orally dosed Wistar rat after 0.5 hrs by MES test; format: functional; settings: po
[10] = tested on: Rattus norvegicus; experiment: Neurotoxicity in orally dosed Wistar rat after 4 hrs by RotoRod test; format: toxicity, organism-based; settings: in vivo, po
[11] = tested on: Rattus norvegicus; experiment: Anticonvulsant activity in orally dosed Wistar rat after 0.3 hrs by PTZ test; format: functional; settings: po
[12] = tested on: Rattus norvegicus; experiment: Anticonvulsant activity in orally dosed Wistar rat after 3 hrs by PTZ test; format: functional; settings: po
[13] = tested on: Rattus norvegicus; experiment: Neurotoxicity in orally dosed Wistar rat after 0.5 hrs by RotoRod test; format: toxicity, organism-based; settings: in vivo, po
[14] = tested on: Rattus norvegicus; experiment: Anticonvulsant activity in orally dosed Wistar rat after 1 hr by PTZ test; format: functional; settings: po
[15] = tested on: Rattus norvegicus; experiment: Anticonvulsant activity in orally dosed Wistar rat after 2 hrs by MES test; format: functional; settings: po
[16] = Inhibition of voltage dependent sodium current in rat cortical neurons at 10 uM by whole-cell patch clamp technique; format: functional
[17] = tested on: Rattus norvegicus; experiment: Anticonvulsant activity in orally dosed Wistar rat after 4 hrs by MES test; format: functional; settings: po
[18] = tested on: Rattus norvegicus; experiment: Neurotoxicity in orally dosed Wistar rat after 2 hrs by RotoRod test; format: toxicity, organism-based; settings: in vivo, po
[19] = Displacement of [3H]flunitrazepam from benzodiazepine receptor in rat neuronal membranes at 10 uM

| SMILES | ED50 [2] [mg/kg] | Activity [3] [%] | Activity [4] [%] | inhibition at 100 µM [5] [%] | inhibition [6] [%] | ED50 [14] [mg/kg] | also measured |
| --- | --- | --- | --- | --- | --- | --- | --- |
| Cc1cccc(-c2noc(Cn3cncn3)n2)c1 | 219 | 387 | 110 | 22 | -1.1 | – | ED50 [1]: 95.9 mg/kg |
| Clc1ccc(-c2noc(Cn3cncn3)n2)cc1 | < 100 | 553 | 141 | 31 | -8 | – | ED50 [7]: 29.5 mg/kg; ED50 [8]: 21.8 mg/kg; ED50 [9]: 47.2 mg/kg |
| Fc1ccc(-c2nc(Cn3cncn3)no2)cc1 | – | – | – | – | – | – | ED50 [10]: < 150 mg/kg; ED50 [11]: 15.2 mg/kg |
| Cc1cccc(-c2nc(Cn3cncn3)no2)c1 | – | – | – | – | – | – | ED50 [12]: > 50 mg/kg; ED50 [9]: < 50 mg/kg; ED50 [13]: > 50 mg/kg |
| Fc1cccc(-c2nc(Cn3cncn3)no2)c1 | – | – | – | – | – | 73.9 | ED50 [13]: < 250 mg/kg |
| Clc1ccc(-c2nc(Cn3cncn3)no2)cc1 | – | – | – | – | – | > 100 | – |
| c1ccc(-c2noc(Cn3ccnc3)n2)cc1 | – | 134 | – | 83 | 0.6 | – | ED50 [15]: 5.8 mg/kg; inhibition at 10 µM [16]: 30% |
| c1ccc(-c2noc(Cn3cncn3)n2)cc1 | – | 286 | – | 8 | 2.7 | – | ED50 [7]: 37 mg/kg; ED50 [17]: 13.1 mg/kg; ED50 [18]: 77 mg/kg |
| CN1C(=O)CN=C(c2ccccc2)c2cc(Cl)ccc21 [DIAZEPAM] | – | – | 216 | – | > 99 | – | Ki [19]: 6.8 nM |
| Cc1ccc(-c2noc(Cn3cncn3)n2)cc1 | 171 | – | – | – | – | 76.5 | ED50 [15]: > 70 mg/kg |
| Fc1cccc(-c2noc(Cn3cncn3)n2)c1 | 128 | 212 | – | 12 | -1.6 | 39.2 | ED50 [8]: 26.2 mg/kg |
| c1ccc(-c2nc(Cn3cncn3)no2)cc1 | 335 | 210 | 131 | 9 | -3.1 | 25.5 | ED50 [8]: 14.6 mg/kg |
| Clc1ccc(-c2noc(Cn3ccnc3)n2)cc1 | > 500 | 298 | 103 | 72 | 0.2 | – | – |
| Fc1ccccc1-c1noc(Cn2cncn2)n1 | – | 191 | – | – | 2.2 | – | ED50 [7]: < 50 mg/kg; ED50 [15]: 44.3 mg/kg; ED50 [18]: < 250 mg/kg |
